System: CRL 1730 HUVECs
Test: Microarray transcriptomics of HUVEC (HGERT/HG, HG/NG)
Type: cell-based, human
[1] = Breast cancer, Cysteine/gluathione
[2] = Breast cancer, Heat shock protein
[3] = Breast cancer, ILK signaling (integrin linked kinase)
[4] = Breast cancer, Mitotic cell cycle
[5] = Breast cancer, One carbon metabolism
[6] = Breast cancer, Peptidase activity
[7] = Breast cancer, Plasminogen activators
[8] = Breast cancer, Reactive oxygen species
[9] = Breast cancer, Tyrosine phosphatase activity
[10] = HUVEC, 5 mM ERT + 30 mM glucose vs 30 mM glucose

OC[C@@H](O)[C@@H](O)CO [ERT, meso-1,2,3,4-tetrahydroxybutane]
HGERT/HG TRIT1 (TRNA isopentenyltransferase 1) (Breast cancer, ATP metabolism): 0.98 Ω
HGERT/HG VPS4B (Vacuolar protein sorting 4 homolog B (S. cerevisiae)) (Breast cancer, ATP metabolism): 0.99 Ω
HGERT/HG YME1L1 (YME1-like 1 (S. cerevisiae)) (Breast cancer, ATP metabolism): 1.00 Ω
HGERT/HG CORO1A (Coronin, actin binding protein, 1A) (Breast cancer, Actin binding): 0.94 Ω
HGERT/HG PLEC1 (Plectin) (Breast cancer, Actin binding): Ψ 1.03
HGERT/HG JUP (Junction plakoglobin) (Breast cancer, Alpha-catenin binding): Ψ 1.01
HGERT/HG AHCYL1 (Adenosylhomocysteinase-like 1) [1]: Ψ 1.01
HGERT/HG ATIC (5-aminoimidazole-4-carboxamide ribonucleotide formyltransferase/IMP cyclohydroiase) [1]: 0.99 Ω
HGERT/HG ESD (Esterase D) [1]: 0.99 Ω
HGERT/HG DCK (Deoxycytidine kinase) (Breast cancer, Deoxycytidine metabolism): 0.98 Ω
HGERT/HG COL4A6 (Collagen, type IV, alpha 6) (Breast cancer, Focal adhesion): Ψ 1.03
HGERT/HG DNAJC8 (DnaJ (Hsp40) homolog, subfamily C, member 8) [2]: 0.99 Ω
HGERT/HG DNAJC11 (DnaJ (Hsp40) homolog, subfamily C, member 11) [2]: Ψ 1.01
HGERT/HG ACTN1 (Breast cancer, Hypoxia response): 0.99 Ω
HGERT/HG ACTN1 (Actinin, alpha 1) [3]: Ψ 1.01
HGERT/HG FBLIM1 (Flamin binding LIM protein 1) [3]: Ψ 1.02
HGERT/HG NCK2 (NCK adaptor protein 2) [3]: Ψ 1.01
HGERT/HG PXN (Paxillin) [3]: Ψ 1.01
HGERT/HG RHOB (Ras homolog gene family, member B) [3]: Ψ 1.02
HGERT/HG RHOJ (Ras homolog gene family, member J) [3]: Ψ 1.02
HGERT/HG RSU1 (Ras suppressor protein 1) [3]: 0.99 Ω
HGERT/HG VIM (Vimentin) [3]: 1.00 Ω
HGERT/HG ACTN1 (Actinin, alpha 1) (Breast cancer, Insulin binding): Ψ 1.01
HGERT/HG FBLM1 (Filamin binding LIM protein 1) (Breast cancer, Insulin binding): Ψ 1.02
HGERT/HG NCK2 (NCK adaptor protein 2) (Breast cancer, Insulin binding): Ψ 1.01
HGERT/HG PIK3R1 (Phosphoinositide-3 kinase, regulatory subunit 1 (alpha)) (Breast cancer, Insulin binding): Ψ 1.03
HGERT/HG PXN (Paxillin) (Breast cancer, Insulin binding): Ψ 1.01
HGERT/HG RHOB (Ras homolog gene family, member B) (Breast cancer, Insulin binding): Ψ 1.02
HGERT/HG RHOJ (Ras homolog gene family, member J) (Breast cancer, Insulin binding): Ψ 1.02
HGERT/HG RSU1 (Ras suppressor protein 1) (Breast cancer, Insulin binding): 0.99 Ω
HGERT/HG VIM (Vimentin) (Breast cancer, Insulin binding): 1.00 Ω
HGERT/HG WDRG (WD repeat domain 6) (Breast cancer, Insulin binding): Ψ 1.02
HGERT/HG AZI1 (S-azacytidine induced 1) [4]: Ψ 1.02
HGERT/HG CEP135 (Centrosomal protein 135kDa) [4]: Ψ 1.01
HGERT/HG CEP250 (Centrosomal protein 250kDa) [4]: 0.99 Ω
HGERT/HG FGFR1OP (FGFR1 oncogene partner) [4]: 0.99 Ω
HGERT/HG MPHOSPH6 (M-phase phosphoprotein G) [4]: 0.99 Ω
HGERT/HG UBA3 (Ubiquitin-like modifier activating enzyme 3) [4]: 0.99 Ω
HGERT/HG AHCYL1 (Adenosylhomocysteinase-like 1) [5]: Ψ 1.01
HGERT/HG ATIC (5-aminoimdazole-4-carboxamide ribonucleotide formyltransferase/IMP cyclohydroiase) [5]: 0.99 Ω
HGERT/HG ESD (Esterase D) [5]: 0.99 Ω
HGERT/HG OSTM1 (Osteopetrosis associated transmembrane protein 1) (Breast cancer, Osteoclast differentiation): 0.99 Ω
HGERT/HG CORO1A (Coronin, actin binding protein, 1A) (Breast cancer, PI3 kinase binding): 0.94 Ω
HGERT/HG ATXN3 (Ataxin 3) [6]: 0.99 Ω
HGERT/HG OTUD5 (OTU domain containing 5) [6]: Ψ 1.01
HGERT/HG SENP3 (SUMO1/sentrin/SMT3 sepcific peptidase 3) [6]: Ψ 1.01
HGERT/HG WFDC12 (WAP four-disulfide core domain 12) [6]: 0.96 Ω
HGERT/HG BAD2 (Bromodomain containing 2) [7]: Ψ 1.02
HGERT/HG RHOJ (Ras homolog gene family, member J) [7]: Ψ 1.02
HGERT/HG COX8A (Cytochrome c oxidase subunit VIIIA (ubiquitous)) [8]: 0.99 Ω
HGERT/HG JUP (Junction plankoglobin) [8]: Ψ 1.01
HGERT/HG MPHOSPH6 (M-phase phosphoprotein 6) [8]: 0.99 Ω
HGERT/HG SDHD (Succinate dehydrogenase complex, subunit D, integral membrane protein) [8]: 0.98 Ω
HGERT/HG SMOX (Spermine oxidase) [8]: 0.99 Ω
HGERT/HG SOS1 (Son of sevenless homolog 1 (Drosophila)) [8]: Ψ 1.06
HGERT/HG TCF12 (Transcription factor 12) [8]: 0.99 Ω
HGERT/HG TGM2 (Transglutaminase 2 (C polypeptide, protein-glutamine-gamma-glutamyltransferase)) [8]: Ψ 1.01
HGERT/HG PAQR3 (Progestin and adipoQ receptor family member III) (Breast cancer, Receptor activity): 0.98 Ω
HGERT/HG EID2 (EP300 interacting inhibitor of differentiation 2) (Breast cancer, SMAD binding): 0.99 Ω
HGERT/HG PGRMC2 (Progesterone receptor membrane component 2) (Breast cancer, Steroid hormone receptor activity): 0.98 Ω
HGERT/HG HS3ST1 (Heparan sulfate (glucosamine) 3-O-sulfotransferase 1) (Breast cancer, Sulfotransferase acfivity): Ψ 1.03
HGERT/HG DUSP23 (Dual specificity phosphatase 23) [9]: 0.99 Ω
HGERT/HG PTPLAD1 (Protein tyrosine phosphatase-like A domain containing 1) [9]: Ψ 1.01
transcriptomic changes, HG/NG vs HGERT/HG (HUVEC, HG conditions): reverses many of the transciptomic changes observed in its absence
HGERT/HG transcript ABCB10 [10]: 0.98 Ω
HGERT/HG transcript ACTL6A [10]: 0.98 Ω
HGERT/HG transcript ACTN1 [10]: Ψ 1.01
HGERT/HG transcript ACTR5 [10]: Ψ 1.01
HGERT/HG transcript AGTPBP1 [10]: 0.98
HGERT/HG transcript AHCYL1 [10]: Ψ 1.01
HGERT/HG transcript ANKZF1 [10]: 0.99
HGERT/HG transcript ATAD1 [10]: 0.99 Ω
HGERT/HG transcript ATAD3B [10]: Ψ 1.01
HGERT/HG transcript ATIC [10]: 0.99 Ω
HGERT/HG transcript ATP2C1 [10]: 0.99 Ω
HGERT/HG transcript ATP5E [10]: 0.99 Ω
HGERT/HG transcript ATP5O [10]: 1.00 Ω
HGERT/HG transcript ATP13A1 [10]: Ψ 1.02
HGERT/HG transcript AZI1 [10]: Ψ 1.02
HGERT/HG transcript BACE1 [10]: Ψ 1.02
HGERT/HG transcript BBS10 [10]: 0.98 Ω
HGERT/HG transcript BRD2 [10]: Ψ 1.02
HGERT/HG transcript Bcl2l12 [10]: Ψ 1.02
HGERT/HG transcript C3orf26 [10]: 0.99 Ω
HGERT/HG transcript C6orf66 [10]: 0.99 Ω
HGERT/HG transcript C20orf7 [10]: 0.99 Ω
HGERT/HG transcript CARS [10]: 1.00 Ω
HGERT/HG transcript CENPK [10]: 0.97 Ω
HGERT/HG transcript CEP135 [10]: Ψ 1.01
HGERT/HG transcript CEP250 [10]: 0.99
HGERT/HG transcript CHMP7 [10]: 0.99
HGERT/HG transcript CIB1 [10]: 1.00 Ω
HGERT/HG transcript CKAPS [10]: Ψ 1.01
HGERT/HG transcript CNIH2 [10]: 0.99
HGERT/HG transcript COG6 [10]: 0.99
HGERT/HG transcript COL4A6 [10]: Ψ 1.03
HGERT/HG transcript CORO1A [10]: 0.94 Ω
HGERT/HG transcript COX8A [10]: 0.99 Ω
HGERT/HG transcript CSNK1G1 [10]: Ψ 1.02

Source: patent US20150104868A1, “Methods of Maintaining and Improving Biological Cell Function and Activity” (GARGILL INCORPORATED, priority 2012, published 2015)
